{"source": "patent US4666902A", "about": "“Tetrahydropyridazinone derivatives, processes for their preparation and their use” (Cassella Aktiengesellschaft, priority 1983, dated 1987)", "format_in_all_cases": "cell-based", "key": {"[1]": {"test_system": "thrombocyte aggregation induced by arachidonic acid", "experiment": "Inhibition of thrombocyte aggregation in vitro (Born), arachidonic acid", "settings": "induced by 0.36 mM of arachidonic acid", "protocol": "(§1) The values of tables 3 to 5 showing the inhibition of the thrombocytic aggregation were determined in vitro according to the Born method (J. Physiol. 162 67 P (1962)) using arachidonic acid, thrombin or adenosine diphosphate as aggregation agent.\nInhibition of thrombocyte aggregation in vitro (according to BORN)\ninduced by 0.36 mM of arachidonic acid"}, "[2]": {"test_system": "thrombocyte aggregation induced by thrombin", "experiment": "Inhibition of thrombocyte aggregation in vitro (Born), thrombin", "settings": "induced by 0.2-0.4 N.I.H. units/ml (thrombin)", "protocol": "as §1\nInhibition of thrombocyte aggregation in vitro\n(according to BORN) induced by 0.2-0.4 N.I.H. units/ml"}, "[3]": {"test_system": "thrombocyte aggregation induced by ADP", "experiment": "Inhibition of thrombocyte aggregation in vitro (Born), ADP", "settings": "induced by 10 μM ADP", "protocol": "as §1\nInhibition of thrombocyte aggregation in vitro (according to\nBORN) induced by 10 μM ADP"}}}
{"molecule": "O=C1CC(CO)C(c2cccc([N+](=O)[O-])c2)=NN1", "note": "(stereo not drawn) [drawing 78]", "values": [{"measurement": "IC50", "setting": "[1]", "result": 1500, "unit": "nM"}]}
{"molecule": "Cc1nnc(COc2ccc(C3=NNC(=O)CC3CO)cc2)o1", "note": "(stereo not drawn) [drawing 79]", "values": [{"measurement": "IC50", "setting": "[1]", "result": 1000, "unit": "nM"}]}
{"molecule": "O=C1CC(CO)C(c2ccc(OCCn3ccnc3)cc2)=NN1", "note": "(stereo not drawn) [drawing 80]", "values": [{"measurement": "IC50", "setting": "[1]", "result": 2000, "unit": "nM"}]}
{"molecule": "N#Cc1ccc(C2=NNC(=O)CC2CO)cc1", "note": "(stereo not drawn) [drawing 81]", "values": [{"measurement": "IC50", "setting": "[1]", "result": 300, "unit": "nM"}]}
{"molecule": "CC(=O)Nc1ccc(C2=NN(C)C(=O)CC2CO)cc1", "note": "(stereo not drawn) [drawing 82]", "values": [{"measurement": "IC50", "setting": "[1]", "result": "> 100000", "unit": "nM"}]}
{"molecule": "COc1ccc(C2=NNC(=O)CC2COC(=O)COc2ccc(Cl)cc2)cc1OC", "note": "(stereo not drawn) [drawing 83]", "values": [{"measurement": "IC50", "setting": "[1]", "result": 4000, "unit": "nM"}]}
{"molecule": "O=C1CC(CO)C(c2ccc(OCc3cccnc3)cc2)=NN1", "note": "(stereo not drawn) [drawing 85]", "values": [{"measurement": "IC50", "setting": "[1]", "result": 450, "unit": "nM"}]}
{"molecule": "O=C1CC(CO)C(c2cccs2)=NN1", "note": "(stereo not drawn) [drawing 86]", "values": [{"measurement": "IC50", "setting": "[1]", "result": 50000, "unit": "nM"}]}
{"molecule": "O=C1CC(CO)C(c2ccc(N3CCCC3=O)cc2)=NN1", "note": "(stereo not drawn) [drawing 87]", "values": [{"measurement": "IC50", "setting": "[1]", "result": 400, "unit": "nM"}]}
{"molecule": "COc1ccc(C2=NNC(=O)CC2CO)cc1OC", "note": "(stereo not drawn) [drawing 88]", "values": [{"measurement": "IC50", "setting": "[1]", "result": 600, "unit": "nM"}]}
{"molecule": "O=C1CC(CO)C(c2ccc(Cl)cc2)=NN1", "note": "(stereo not drawn) [drawing 90]", "values": [{"measurement": "IC50", "setting": "[1]", "result": 900, "unit": "nM"}]}
{"molecule": "CC(=O)Nc1ccc(C2=NNC(=O)CC2CO)cc1", "note": "(stereo not drawn) [drawing 91]", "values": [{"measurement": "IC50", "setting": "[1]", "result": 200, "unit": "nM"}]}
{"molecule": "O=C1CC(CO)C(c2c[nH]c3ccccc23)=NN1", "note": "(stereo not drawn) [drawing 93]", "values": [{"measurement": "IC50", "setting": "[1]", "result": 550, "unit": "nM"}]}
{"molecule": "COc1ccc(C2=NNC(=O)CC2COC(=O)c2cccnc2)cc1OC", "note": "(stereo not drawn) [drawing 94]", "values": [{"measurement": "IC50", "setting": "[1]", "result": 30000, "unit": "nM"}]}
{"molecule": "COc1ccc(C2=NNC(=O)CC2CO)cc1", "note": "(stereo not drawn) [drawing 98]", "values": [{"measurement": "IC50", "setting": "[2]", "result": 2500, "unit": "nM"}]}
{"molecule": "O=C1CC(CO)C(c2ccc(Cl)cc2)=NN1", "note": "(stereo not drawn) [drawing 99]", "values": [{"measurement": "IC50", "setting": "[2]", "result": 6000, "unit": "nM"}]}
{"molecule": "CC(=O)Nc1ccc(C2=NNC(=O)CC2CO)cc1", "note": "(stereo not drawn) [drawing 100]", "values": [{"measurement": "IC50", "setting": "[2]", "result": 700, "unit": "nM"}]}
{"molecule": "COc1ccc(C2=NNC(=O)CC2CO)cc1OC", "note": "(stereo not drawn) [drawing 101]", "values": [{"measurement": "IC50", "setting": "[2]", "result": 2000, "unit": "nM"}]}
{"molecule": "COc1ccc(C2=NNC(=O)CC2COC(=O)COc2ccc(Cl)cc2)cc1OC", "note": "(stereo not drawn) [drawing 102]", "values": [{"measurement": "IC50", "setting": "[2]", "result": "> 100000", "unit": "nM"}]}
{"molecule": "O=C1CC(CO)C(c2ccccc2)=NN1", "note": "(stereo not drawn) [drawing 105]", "values": [{"measurement": "IC50", "setting": "[3]", "result": "> 100", "unit": "µM"}]}
{"molecule": "Cc1ccc(C2=NNC(=O)CC2CO)cc1", "note": "(stereo not drawn) [drawing 106]", "values": [{"measurement": "IC50", "setting": "[3]", "result": 150, "unit": "µM"}]}
{"molecule": "COc1ccc(C2=NNC(=O)CC2CO)cc1", "note": "(stereo not drawn) [drawing 107]", "values": [{"measurement": "IC50", "setting": "[3]", "result": 50, "unit": "µM"}]}
{"molecule": "O=C1CC(CO)C(c2ccc(Cl)cc2)=NN1", "note": "(stereo not drawn) [drawing 108]", "values": [{"measurement": "IC50", "setting": "[3]", "result": 70, "unit": "µM"}]}
{"molecule": "CC(=O)Nc1ccc(C2=NNC(=O)CC2CO)cc1", "note": "(stereo not drawn) [drawing 109]", "values": [{"measurement": "IC50", "setting": "[3]", "result": 10, "unit": "µM"}]}
{"molecule": "COc1ccc(C2=NNC(=O)CC2CO)cc1OC", "note": "(stereo not drawn) [drawing 110]", "values": [{"measurement": "IC50", "setting": "[3]", "result": 9, "unit": "µM"}]}
{"molecule": "Cc1nnc(COc2ccc(C3=NNC(=O)CC3CO)cc2)o1", "note": "(stereo not drawn) [drawing 111]", "values": [{"measurement": "IC50", "setting": "[3]", "result": 20, "unit": "µM"}]}
{"molecule": "O=C1CC(CO)C(c2ccc(OCCn3ccnc3)cc2)=NN1", "note": "(stereo not drawn) [drawing 112]", "values": [{"measurement": "IC50", "setting": "[3]", "result": 150, "unit": "µM"}]}
{"molecule": "O=C1CC(CO)C(c2ccc(N3CCCC3=O)cc2)=NN1", "note": "(stereo not drawn) [drawing 113]", "values": [{"measurement": "IC50", "setting": "[3]", "result": 20, "unit": "µM"}]}
{"molecule": "O=C1CC(CO)C(c2ccc(OCc3cccnc3)cc2)=NN1", "note": "(stereo not drawn) [drawing 114]", "values": [{"measurement": "IC50", "setting": "[3]", "result": 36, "unit": "µM"}]}
{"molecule": "N#Cc1ccc(C2=NNC(=O)CC2CO)cc1", "note": "(stereo not drawn) [drawing 115]", "values": [{"measurement": "IC50", "setting": "[3]", "result": 20, "unit": "µM"}]}
